Measurements reported in patent publication US20010041801A1, “Water soluble fullerenes with antiviral activity” (The Regents of the University of California, priority 1994, published 2001).
Like-named read-outs stand apart in the source and are kept apart here.

Legend:
HIV-1 RT = HIV-1 RT (Human immunodeficiency virus type 1 group M subtype B, UniProt P04585); assay: Inhibition of recombinant p66/51 HIV-1 RT, poly(rA)n.oligo(T)12-18 template-primer; type: biochemical; conditions: cell-free; AZT-5′-triphosphate used for AZT; read-out: IC50 Polymerases: HIV-1 RT
Method: The compound was also evaluated for its inhibitory effect on recombinant p66/51 HIV-1 RT by using poly(rA)n.oligo(T)12-18 as the template-primer as described in Schinazi, et al. (1992, supra). Compound 2c was active against this enzyme, with a median inhibitory concentration (1C50) of 4.6 μM. This value was of the same order of magnitude as that noted for the antiviral assays (TABLE 3). […] AZT-5′ triphosphate and phosphonoformate (PFA), used as positive controls, were effective and selective against HIV-1 RT.

Vero cells = assay: Cytotoxicity in Vero cells; type: cell-based; conditions: day 3
PBMC = assay: Cytotoxicity in uninfected PBMC; type: cell-based, human; conditions: thymidine uptake day 2 and cell counts day 6
HIV-2ROD = assay: Antiviral activity in acutely infected human PBMC, virus RT level; type: cell-based; conditions: acutely infected, virus RT level on day 6, read-out: Antiviral Activity (EC50) in PBMC infected with HIV-2ROD
Method: (§1) Compound 2c was evaluated for antiviral activity in cells acutely and chronically infected with human immunodeficiency virus (HIV). Reverse transcriptase (RT) levels associated with virus were determined with virus concentrated from cell culture supernatants by high-speed centrifugation to reduce the chances of drug carryover in the enzyme assay using the method described in R. F. Schinazi, et al., Antimicrob. Agents Chemother., 36:2423-2431, 1992.

HIV-1 LAI = assay: as above; type: cell-based; conditions: acutely infected, virus RT level on day 6, read-out: Antiviral Activity (EC50) in PBMC infected with HIVLAI
Method: as §1

CEM cells = assay: Cytotoxicity in CEM cells; type: cell-based; conditions: cell counts on day 6
DNA polymerase α = DNA polymerase α (Homo sapiens, UniProt P09884); assay: Inhibition of cellular DNA polymerase α, cell-free; type: biochemical; conditions: AZT-5′-triphosphate used for AZT, read-out: IC50 Polymerases: DNA Polymerase α
[1] = test system: nevirapine (BI-RG587)-resistant HIV-1; assay: Susceptibility of nevirapine-resistant HIV-1; type: cell-based
HIV-1 HI 12.2 = assay: Susceptibility of pretherapy AZT-susceptible isolate in acutely infected PBMC; type: cell-based; conditions: Human immunodeficiency virus 1, PBMC, read-out: EC50 against pretherapy isolate
Excerpt: (§2) The availability of AZT-resistant and -susceptible viruses allowed us to evaluate the compounds of this invention for their susceptibilities to these viruses in acutely infected PBMC in two experiments. […] In the same assay, the EC50 for TIBO [(+)-(5s)-4,5,6,7-tetrahydro-5methyl-6-(3-methyl-2-butenyl)imidazo(4,5,1-jk)(1,4)benzodiazepin-2(1 H)-thione] R82150 increased >500-fold (data not shown).

Cytotoxicity in H9 cells = type: cell-based, human; conditions: human, H9 cells; cell counts on day 6
[2] = Cytotoxicity in Vero cells; type: cell-based; conditions: African green monkey, Vero cells; day 3
[3] = Cytotoxicity in uninfected PBMC; type: cell-based, human; conditions: human, uninfected PBMC; thymidine uptake day 2 and cell counts day 6
HIV-1III = assay: Antiviral activity in chronically infected H9 cells, virus RT level; type: cell-based
Method: as §1

[4] = Cytotoxicity in CEM cells; type: cell-based; conditions: human, CEM cells; cell counts on day 6
HIV-1G910-6 = assay: microbe, parasite or virus in culture; type: cell-based
Excerpt: as §2

HIV-1 protease (HIVP) = target: T1, HIV-1 protease (HIVP) (Human immunodeficiency virus type 1 group M subtype B, UniProt P04585); assay: Inhibition of HIV-1 protease, HPLC assay with kinetic analysis; type: biochemical; conditions: 50 mM NaAc pH 5.5, 1.0 M NaCl; 5 min preincubation; fit to competitive inhibition; read-out: Ki
T1 construct: HIV produces a small, dimeric aspartyl protease which specifically cleaves the polyprotein precursors
Method: The ability of compound 2c to inhibit the HIVP was assayed with an HPLC method as described in R. L DesJarlais, et al., Proc. Natl. Acad. Sci U.S.A., 87:6644-6648, 1990. […] Assays were performed in buffer containing 50 mM NaAc pH 5.5, 1.0 M NaCl, 5% glycerol, 1% DMSO, and 2 mM EDTA. Inhibitor was preincubated with ≈0.05 μg of enzyme for 5 minutes at which time the reaction was initiated by addition of substrate. The reaction was quenched at <15% product formation by the addition of 15 μL of 10% TFA. The cleavage products of the substrate peptide H-Lys-Ala-Arg-Val-Tyr-p-nitro-Phe-Glu-Ala-Ile-NH2 (made by Bachem, Philadelphia, Pa.) were assayed by HPLC using a 10-40% (acetonitrile, 0.1% TFA): (water, 0.1% TFA) gradient over 30 minutes at 1 mL/minute. Product was quantitated by integration of peak areas followed by comparison to product standard curves.
Determination of kinetic constants was done with the program KinetAsyst (IntelliKinetics) by fitting of the data to the equation […]] which describes competitive inhibition.

Solubility in water = conditions: physiologic pH, generally between pH 6 and 8

Sequence of DNA polymerase α (P09884 whole entry): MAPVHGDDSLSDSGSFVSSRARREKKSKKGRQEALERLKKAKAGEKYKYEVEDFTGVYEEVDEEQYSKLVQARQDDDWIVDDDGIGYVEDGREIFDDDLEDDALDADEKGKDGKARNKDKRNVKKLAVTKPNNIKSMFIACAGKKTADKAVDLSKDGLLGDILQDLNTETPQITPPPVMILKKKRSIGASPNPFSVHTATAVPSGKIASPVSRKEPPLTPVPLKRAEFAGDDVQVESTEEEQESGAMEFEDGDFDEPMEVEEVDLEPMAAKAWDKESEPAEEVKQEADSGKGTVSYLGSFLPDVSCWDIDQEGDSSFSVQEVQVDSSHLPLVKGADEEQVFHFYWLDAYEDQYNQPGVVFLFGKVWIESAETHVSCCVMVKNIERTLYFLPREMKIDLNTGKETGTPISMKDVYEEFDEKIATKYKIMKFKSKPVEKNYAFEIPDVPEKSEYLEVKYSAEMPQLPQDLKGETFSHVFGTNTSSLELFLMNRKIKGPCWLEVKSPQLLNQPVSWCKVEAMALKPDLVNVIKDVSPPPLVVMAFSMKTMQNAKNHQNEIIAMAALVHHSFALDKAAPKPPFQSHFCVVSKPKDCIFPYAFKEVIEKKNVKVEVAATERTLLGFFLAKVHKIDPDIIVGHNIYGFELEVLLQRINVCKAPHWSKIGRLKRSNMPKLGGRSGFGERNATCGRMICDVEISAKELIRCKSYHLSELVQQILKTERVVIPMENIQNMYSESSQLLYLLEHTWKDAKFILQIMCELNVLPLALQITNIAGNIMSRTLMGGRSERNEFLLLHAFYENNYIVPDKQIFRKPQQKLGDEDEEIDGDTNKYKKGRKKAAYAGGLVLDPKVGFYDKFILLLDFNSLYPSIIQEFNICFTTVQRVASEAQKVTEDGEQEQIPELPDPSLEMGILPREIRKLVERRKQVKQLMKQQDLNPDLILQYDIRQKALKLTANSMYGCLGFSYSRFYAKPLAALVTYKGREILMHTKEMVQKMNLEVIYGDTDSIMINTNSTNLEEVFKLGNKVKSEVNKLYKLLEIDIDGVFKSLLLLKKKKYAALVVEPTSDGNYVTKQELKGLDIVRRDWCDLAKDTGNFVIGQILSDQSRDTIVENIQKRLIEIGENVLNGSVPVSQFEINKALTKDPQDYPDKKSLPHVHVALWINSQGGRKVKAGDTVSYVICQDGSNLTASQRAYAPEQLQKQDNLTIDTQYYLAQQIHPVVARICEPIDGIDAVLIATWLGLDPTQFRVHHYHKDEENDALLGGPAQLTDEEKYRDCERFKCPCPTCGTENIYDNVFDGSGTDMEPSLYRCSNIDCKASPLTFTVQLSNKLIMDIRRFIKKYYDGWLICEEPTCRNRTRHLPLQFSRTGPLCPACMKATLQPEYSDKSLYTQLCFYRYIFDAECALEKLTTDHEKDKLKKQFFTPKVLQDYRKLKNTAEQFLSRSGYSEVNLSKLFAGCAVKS
Sequence of DNA polymerase α (Q14181 whole entry partner): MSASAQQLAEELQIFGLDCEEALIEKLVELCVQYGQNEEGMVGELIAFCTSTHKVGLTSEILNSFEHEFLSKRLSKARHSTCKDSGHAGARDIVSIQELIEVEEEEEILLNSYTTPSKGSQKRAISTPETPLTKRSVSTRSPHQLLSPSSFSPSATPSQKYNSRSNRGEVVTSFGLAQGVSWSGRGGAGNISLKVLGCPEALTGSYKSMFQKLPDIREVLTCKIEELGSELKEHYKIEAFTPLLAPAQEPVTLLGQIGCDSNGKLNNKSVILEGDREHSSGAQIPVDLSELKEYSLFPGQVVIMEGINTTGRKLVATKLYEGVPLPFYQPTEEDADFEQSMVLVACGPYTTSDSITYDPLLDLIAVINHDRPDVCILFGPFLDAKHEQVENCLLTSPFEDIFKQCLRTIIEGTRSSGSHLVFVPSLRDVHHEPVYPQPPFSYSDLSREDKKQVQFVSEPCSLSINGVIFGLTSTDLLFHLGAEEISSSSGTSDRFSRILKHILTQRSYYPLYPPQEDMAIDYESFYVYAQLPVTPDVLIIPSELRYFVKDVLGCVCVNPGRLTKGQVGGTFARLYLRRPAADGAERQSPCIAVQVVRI
Sequence of DNA polymerase α (P49642 whole entry partner): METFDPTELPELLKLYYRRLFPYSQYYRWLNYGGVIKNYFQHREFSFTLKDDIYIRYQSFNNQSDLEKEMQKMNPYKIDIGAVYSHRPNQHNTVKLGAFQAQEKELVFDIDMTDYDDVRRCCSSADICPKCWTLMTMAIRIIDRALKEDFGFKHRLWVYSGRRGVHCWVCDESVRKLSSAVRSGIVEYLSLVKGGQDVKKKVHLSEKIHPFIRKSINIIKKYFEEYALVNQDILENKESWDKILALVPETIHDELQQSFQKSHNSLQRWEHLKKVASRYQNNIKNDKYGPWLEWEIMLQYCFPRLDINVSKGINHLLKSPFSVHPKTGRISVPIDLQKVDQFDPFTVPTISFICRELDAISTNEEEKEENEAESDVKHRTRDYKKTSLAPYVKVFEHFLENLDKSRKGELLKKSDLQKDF
Sequence of DNA polymerase α (P49643 whole entry partner): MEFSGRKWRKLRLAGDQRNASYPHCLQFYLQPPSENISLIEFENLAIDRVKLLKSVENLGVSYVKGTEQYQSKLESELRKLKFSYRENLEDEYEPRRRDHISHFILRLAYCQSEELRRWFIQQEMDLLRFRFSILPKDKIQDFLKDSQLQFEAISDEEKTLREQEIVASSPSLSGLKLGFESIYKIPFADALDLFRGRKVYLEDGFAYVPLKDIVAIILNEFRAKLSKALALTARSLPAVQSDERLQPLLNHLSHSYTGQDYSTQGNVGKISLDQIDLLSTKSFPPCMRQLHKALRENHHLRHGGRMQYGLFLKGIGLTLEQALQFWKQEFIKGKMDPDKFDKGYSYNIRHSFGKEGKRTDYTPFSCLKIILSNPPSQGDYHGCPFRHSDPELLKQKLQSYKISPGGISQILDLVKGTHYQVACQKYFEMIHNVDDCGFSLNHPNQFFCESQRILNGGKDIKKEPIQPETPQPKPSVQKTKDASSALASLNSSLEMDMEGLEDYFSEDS

O=C(O)P(=O)(O)O [PFA, phosphonoformate, reference compound] showed an IC50 (HIV-1 RT) of 320 nM, an IC50 (Vero cells) greater than 100000 nM and an IC50 (PBMC) greater than 640000 nM. The EC50 (HIV-2ROD) was 440 nM, the EC50 (HIV-1 LAI) was 430 nM and the IC50 (CEM cells) was greater than 100000 nM. It also gave an IC50 (DNA polymerase α) greater than 100000 nM.
For CC(C)=CCN1Cc2cccc3[nH]c(=S)n(c23)C[C@@H]1C [TIBO R82150, (+)-(5s)-4,5,6,7-tetrahydro-5methyl-6-(3-methyl-2-butenyl)imidazo(4,5,1-jk)(1,4)benzodiazepin-2(1 H)-thione, reference compound], the “increase in resistance, nevirapine-resistant vs -susceptible HIV-1” value [1] was greater than 500 fold.
Compound Cc1cn([C@H]2C[C@H](N=[N+]=[N-])[C@@H](CO)O2)c(=O)[nH]c1=O [AZT, 3′-Azido-3′-deoxythymidine, reference compound] has an EC50 (HIV-1 HI 12.2) of less than 1 nM, an IC50 at 6 days (Cytotoxicity in H9 cells) of 60000 nM and an IC50 (HIV-1 RT) of 40 nM. The IC50 at 3 days [2] was 23000 nM, the IC50 [3] was greater than 100000 nM and the EC50 (HIV-2ROD; Human immunodeficiency virus 2, PBMC, 144 h) was 3 nM. For the same compound, the EC50 (HIV-1 LAI; Human immunodeficiency virus 1, PBMC, 144 h) was 4 nM, the “effect in chronically infected H9 cells” value (HIV-1III) was “no effect” and the EC50 (HIV-1III; Human immunodeficiency virus 1, H9, 144 h, chronically infected, virus RT level after 6 days of treatment, read-out: Antiviral Activity (EC50) in H9 cells infected with HIV-1III) was greater than 100000 nM. For the same compound, the IC50 at 6 days [4] was 13000 nM, the IC50 (DNA polymerase α) was greater than 100000 nM and the EC50 (HIV-1G910-6; Human immunodeficiency virus 1, PBMC, read-out: EC50 against AZT-resistant HIV-1, acutely infected PBMC / lymphocytes) was 180 nM. For the same compound, the “increase of EC50, AZT-resistant vs pretherapy virus” value (HIV-1G910-6; virus pair HIV-1 HI 12.2 / HIV-1G910-6) was “more than 180 fold”.
With NCCc1ccc(C2(c3ccc(CCN)cc3)C34c5c6c7c8c9c%10c(c%11c%12c3c3c5c5c%13c6c6c7c7c9c9c%14c%10c%10c%11c%11c%12c%12c3c3c5c5c%13c%13c6c6c7c9c7c9c%14c%10c%10c%11c%11c%12c3c3c5c5c%13c6c7c6c9c%10c%11c3c56)C824)cc1 [Compound 2b, 4,4′-Bis(2-aminoethyl)diphenyl C61] the Ki (HIV-1 protease (HIVP)) was roughly 2000 nM.
For “4,4′-Bis(2-aminoethyl)diphenyl C61 [hydrochloride salt of compound 2b]”, the “water solubility” value (Solubility in water) was “not to be soluble”.
